Here are results for four compounds from PubChem BioAssay (NCI).

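Briefly, cells in 96-well plates were exposed to five compound concentrations for 48 h, and endpoints were estimated by linear interpolation. GI50: concentration for 50% inhibition of growth. TGI: concentration producing complete growth inhibition.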

Test systems include SN12C renal; EKVX NSCLC; MOLT-4 leukemia; SR leukemia; SK-MEL-28 melanoma; 786-0 renal; SK-MEL-2 melanoma; T-47D breast; OVCAR-4 ovarian; CAKI-1 renal.
Holding throughout (assay): NCI tumour cell line growth inhibition, 48 h

As to `COc1cccc2c1-c1c(c3ccc([N+](=O)[O-])cc3c(=O)n1CCCN)C2=O`, the GI50 with SN12C renal was 3.23 µM; with EKVX NSCLC it was 2.17 µM; with MOLT-4 leukemia, 0.0293 µM; in the test with SR leukemia, 25.6 nM; in the test on SK-MEL-28 melanoma, 1.86 µM; in the test with 786-0 renal, 0.479 µM. The GI50 in the test with SK-MEL-2 melanoma was 1.58 µM; in the test with T-47D breast, 1.52 µM; with OVCAR-4 ovarian it was 1.55 µM; in the test on CAKI-1 renal it was 15.1 µM. For the same compound, the TGI was 9.07 µM in the test on SN12C renal; 5.08 µM in the test with EKVX NSCLC; 0.34 µM in the test on MOLT-4 leukemia; 0.379 µM in the test on SR leukemia; 3.81 µM in the test on SK-MEL-28 melanoma; 0.987 µM in the test on 786-0 renal. In addition, the TGI stood at 3 µM with SK-MEL-2 melanoma, 3.63 µM in the test on T-47D breast, 3.94 µM in the test with OVCAR-4 ovarian and 62.7 µM in the test with CAKI-1 renal.

Regarding `O=C1C2=C(c3ccccc31)C(c1ccccc1)N1C(=O)CSC1=N2` (stereo not given), the TGI in the test with SN12C renal is over 94.9 µM; in the test with EKVX NSCLC it was over 100 µM; in the test on MOLT-4 leukemia it was over 100 µM; with SR leukemia it was over 100 µM; in the test with SK-MEL-28 melanoma it was over 100 µM; in the test on 786-0 renal, over 100 µM. The TGI in the test on SK-MEL-2 melanoma was over 100 µM; in the test on T-47D breast, 77.6 µM; with OVCAR-4 ovarian, over 100 µM; in the test on CAKI-1 renal, over 100 µM.

In the case of `CCCCCCNC(=O)Oc1ccc(/C(=C(/C)Cc2ccc(OC)cc2)c2ccc(OCCCN(C)C)cc2)cc1`, the GI50 in the test with SN12C renal is 14.7 µM; in the test on EKVX NSCLC it was 13.2 µM; with MOLT-4 leukemia, 12.3 µM; in the test with SR leukemia, 2790 nM; in the test on SK-MEL-28 melanoma, 14.5 µM; with 786-0 renal, 13.1 µM. The GI50 was 18.5 µM in the test with SK-MEL-2 melanoma, 11.3 µM in the test with T-47D breast, 13.1 µM in the test on OVCAR-4 ovarian and 14.5 µM in the test on CAKI-1 renal. Further, the TGI came to 28.3 µM in the test on SN12C renal; 27.5 µM with EKVX NSCLC; 28.2 µM in the test on MOLT-4 leukemia; 11.9 µM in the test with SR leukemia; 28.1 µM in the test on SK-MEL-28 melanoma; 28.4 µM with 786-0 renal. The TGI with SK-MEL-2 melanoma came to 34 µM; in the test with T-47D breast it was 27.3 µM; in the test on OVCAR-4 ovarian, 26.7 µM; in the test with CAKI-1 renal, 27.8 µM.

As to `O=C(CN1CCN(c2cc3c(cc2F)c(=O)c(C(=O)O)cn3C2CC2)CC1)Nc1nc(-c2ccc(Cl)cc2)cs1`, the GI50 is 3.69 µM in the test on SN12C renal; 4.45 µM in the test on EKVX NSCLC; 3.31 µM in the test on MOLT-4 leukemia; 3580 nM in the test with SR leukemia; 3.02 µM in the test with SK-MEL-28 melanoma; 4.24 µM with 786-0 renal. The GI50 with SK-MEL-2 melanoma was 3.12 µM; in the test with T-47D breast, 3.58 µM; in the test with OVCAR-4 ovarian, 6.64 µM; in the test with CAKI-1 renal, 3.57 µM. Further, the TGI in the test on SN12C renal is over 100 µM; in the test with EKVX NSCLC, over 100 µM; in the test with MOLT-4 leukemia, over 100 µM; in the test on SR leukemia, 53.1 µM; with SK-MEL-28 melanoma, 45.8 µM; in the test on 786-0 renal, over 100 µM. The TGI in the test on SK-MEL-2 melanoma is 21 µM; with T-47D breast, over 100 µM; with OVCAR-4 ovarian, 98.8 µM; with CAKI-1 renal it was over 100 µM.
